# From patent EP0714662A1, “ANTIALLERGIC AGENT” (MEIJI MILK PRODUCTS COMPANY LIMITED, priority 1993, dated 1995)
# Ends that are not written are not given here. Peptide text beside a SMILES is read from it.
# Tested on: serum IgE from 15 patients suffering from mite rhinallergosis
# Assay: Enzyme antibody assay: binding of solid phase Der p II overlapping peptides to patients' serum IgE
# Design: species or system human
# Details: serum from each of 15 patients
# Experimental: The complete primary structure of the amino acid sequence of a Der p II protein was determined after cDNA was isolated therefrom by Chua et al. (Int. Arch. Allergy Appl. Immunol. 91: 118-123, 1990). Based on the amino acid sequence, peptides were synthesized on a solid phase using a multipin system (manufactured by Chiron) and coupling reagents, Fmoc-amino acid and DCC (dicyclohexyl carbodiimide) (Geysen, H.M. et al., Proc. Natl. Acad. Sci. USA. 81:3998-4002, 1984). Sixty-one kinds of peptides were synthesized, the first peptide comprising the first through ninth amino acids of the N-terminal of Der p II, the second peptide comprising the third through eleventh amino acids of the N-terminal, and the third through 61st peptides being prepared in an analogous manner.
# The RAST (radio-allergosorbent test, Pharmacia) values as determined using antigens from two mite species, Dermatophagoides pteronyssinus (Der p) and Dermatophagoides farina (D f), were class 4. Each of the above-mentioned 61 synthesized peptides and 100 µl of each patient's serum were placed in a 96-well plate and reacted overnight at room temperature. Synthesized peptides in a solid phase were washed three times to remove the patient's serum using a washing solution of 0.05% Tween 20/0.15 M NaCl/Tris-HCl (pH 7.5). 100 µl of galactosidase-labelled anti-human IgE antibodies (Pharmacia) were diluted to 40-fold using a 1:9 diluted Block-ace (product of Dainippon Seiyaku K.K.). The diluted solution was added to a 96-well plate, each synthesized solid phase peptide was also added, and reaction, was allowed to proceed overnight at room temperature. The synthesized solid phase peptide was washed with the same washing solution five times. Thereafter, to a 96-well black plate (manufactured by Dainippon Seiyaku K.K.), were added 200 µl of a solution of 0.1 mM 4-methylumbelliferyl-β-D-galactopyranoside in 0.1% bovine serum albumin/0.1 M NaCl/1 mM MgCl₂/0.1% sodium azide/10 mM phosphate buffer (pH 7.0). Subsequently, the synthesized solid phase peptide was added and reacted for 2 hours at 37°C. After completion of reaction, 100 µl of a reaction terminating solution (0.1 M glycin/NaOH, pH 10.3) were added to each well, and absorbance was measured using a fluorospectrophotometer for 96-well plates (Manufactured by Flow). This reaction was studied for each of 15 patients.
row,Compound,binding reactions with IgE antibodies
1,ANQNTKTAK [synthesized peptide No. 22],exhibited binding reactions with IgE antibodies
2,FQLEAVFEA [synthesized peptide No. 18],exhibited binding reactions with IgE antibodies
3,IATHAKIRD [synthesized peptide No. 61],exhibited binding reactions with IgE antibodies
4,KCPLVKGQQ [synthesized peptide No. 39],exhibited binding reactions with IgE antibodies
5,KIEIKASID [synthesized peptide No. 26],exhibited binding reactions with IgE antibodies
6,NVPKIAPKS [synthesized peptide No. 47],exhibited binding reactions with IgE antibodies
7,PKSENVVVT [synthesized peptide No. 50],exhibited binding reactions with IgE antibodies
8,SENVVVTVK [synthesized peptide No. 51],exhibited binding reactions with IgE antibodies
9,SIDGLEVDV [synthesized peptide No. 29],exhibited binding reactions with IgE antibodies
10,VVTVKVMGD [synthesized peptide No. 53],exhibited binding reactions with IgE antibodies

# Tested on: basophils of a patient
# Assay: Histamine release inhibition test with peptide D, blood of egg allergy patients
# Assay type: cell-based, human
# Details: peptide D 1.4 mg/ml
# Experimental: The histamine release inhibition test was performed using a histamine kit "Eiken" manufactured by Eiken Kagaku K.K. Briefly, heparinized peripheral blood was collected from each patient, and the blood was diluted to a 1:1 ratio using a buffer for release tests. Equivalent amounts of a diluted peptide D (which had been diluted to double the density of an inhibitory concentration using a buffer for release tests) and a diluted blood from a patient (which had been diluted to a 1:1 ratio) were mixed and allowed to react overnight at 4°C. Subsequently, fifty µl of peptide B or OVA diluted with a buffer for release was mixed with 100 µl of the patient's blood with which peptide D was reacted. […] After the histamine tubes were incubated for 16 to 24 hours, the solution was drawn off using an aspirator, and measured using a gamma scintillation counter. The amount of total histamine was determined using a supernatant sample obtained by adding 1 ml of purified water to 50 µl of whole blood, freezing and thawing, then centrifugally separating. […] The ratio of the difference with respect to the total amount of histamine was calculated and taken as a histamine release ratio. Inhibition ratio (%) was calculated by the following equation: %Inhibition = {1-(histamine release ratio in the presence of an inhibitory peptide)/(histamine release ratio in the absence of an inhibitory peptide)} x 100 [formula] […]
row,Compound,suppression ratio of histamine release caused by untreated OVA
1,EFRADHPFLF [peptide D],93%

# Same assay, conditions: peptide D at a concentration of not less than 1.4 mg/ml
row,Compound,suppression of histamine release caused by stimulant peptide B
1,EFRADHPFLF [peptide D],at least 85%

# Tested on: serum IgE of cryptomeria pollinosis patients
# Assay: Enzyme antibody assay: binding of solid phase Cry j II overlapping peptides to patients' serum IgE
# Design: species or system human
# Details: not given
# Text: Presently, however, the C-terminal amino acids are unknown. Therefore, overlapping peptides were synthesized on a solid phase using an Fmoc-amino acid and multipin system (manufactured by Chiron) so as to cover all the proteins consisting of 460 amino acid residues (Sequence No. 1) other than the N-terminal moiety. The first peptide comprises the first through ninth amino acids in the N-terminal moiety of a Cry j II protein. The second peptide comprises the third through eleventh amino acids in the N-terminal moiety.
# Subsequently, using a washing solution of 0.05% Tween 20/0.15 M NaCl/Tris-HCl (pH 7.5), synthesized solid phase peptides were washed three times to remove the patient's serum. Using a 1:9 diluted Block-ace (product of Dainippon Seiyaku K.K.), 100 µl of galactosidase-labelled anti-human IgE antibodies (Pharmacia) were diluted to 40-fold. The diluted solution was added to a 96-well plate, and then each synthesized solid phase peptide was also added. Reaction was allowed to proceed overnight at room temperature. The synthesized solid phase peptide was washed with the same washing solution five times. Thereafter, 200 µl of a solution of 0.1 mM 4-methylumbelliferyl-β-D-galactopyranoside in 0.1% bovine serum albumin/0.1 M NaCl/1 mM MgCl₂/0.1% sodium azide/10 mM phosphate buffer (pH 7.0) were added to a 96-well black plate (manufactured by Dainippon Seiyaku K.K.). Subsequently, the synthesized solid phase peptide was added and reacted for 2 hours at 37°C.
row,Compound,reaction with serum IgE of cryptomeria pollinosis patients
1,C[C@H](NC(=O)[C@H](CO)NC(=O)[C@H](C)NC(=O)[C@H](CO)NC(=O)[C@@H](NC(=O)[C@@H](N)CS)[C@@H](C)O)C(=O)N[C@@H](CS)C(=O)N[C@@H](CCC(N)=O)C(=O)N[C@@H](CC(N)=O)C(=O)O [Cys-Thr-Ser-Ala-Ser-Ala-Cys-Gln-Asn] (H-CTSASACQN-OH),reacted serum IgE of cryptomeria pollinosis patients
2,C[C@@H](O)[C@H](NC(=O)[C@H](CS)NC(=O)[C@H](CC(N)=O)NC(=O)[C@@H]1CCCN1)C(=O)N[C@@H](CC(N)=O)C(=O)N[C@@H](CCCCN)C(=O)N[C@@H](CS)C(=O)N[C@@H](Cc1c[nH]cn1)C(=O)NCC(=O)O [Pro-Asn-Cys-Thr-Asn-Lys-Cys-His-Gly] (H-PNCTNKCHG-OH),reacted serum IgE of cryptomeria pollinosis patients
3,KWVNGREIC [Lys-Trp-Val-Asn-Gly-Arg-Glu-Ile-Cys],reacted serum IgE of cryptomeria pollinosis patients
4,NLFFNGPCQ [Asn-Leu-Phe-Phe-Asn-Gly-Pro-Cys-Gln],reacted serum IgE of cryptomeria pollinosis patients
5,QCKWVNGRE,reacted serum IgE of cryptomeria pollinosis patients
6,SASACQNQR [Ser-Ala-Ser-Ala-Cys-Gln-Asn-Gln-Arg],reacted serum IgE of cryptomeria pollinosis patients
